Source: article PMC9501633, “Synthesis, Characterisation and Mechanism of Action of Anticancer 3-Fluoroazetidin-2-ones” (Pharmaceuticals, 2022)

System: NCI 60 cell line panel
Experiment: NCI 60 cell line screen, whole panel
Format: cell-based
Details: 5-dose assay, 48 h, mean-graph midpoint
Experimental: The antiproliferative effects of selected compounds 33, 37 and 43 were initially evaluated in the NCI 60 cell line screen at 10 μM concentration (see Supplementary Materials Table S3). […] . […] .
Compound 33 was next selected for evaluation in the NCI 60 cell line five-dose screen. The GI50 (50% growth inhibition), TGI (total growth inhibition) and LC50 (50% lethal concentration) were determined in the NCI panel of 60 cell lines, using the sulphorhodamine B (SRB) protein assay (Table 5). The GI50 value provides the growth inhibition of the selected compound, while the cytotoxic effect is evaluated in the LC50 value. […] . […] . Glioblastoma is an aggressive and fast-growing brain tumour with a median survival time of 9–16 months from diagnosis, and these tumours quickly evolve resistance to temozolomide chemotherapy, which is the only FDA-approved treatment. […] . Further mechanistic and cellular studies were carried out and are described below.
aData obtained from NCI in vitro human tumour cell screen 1 dose assay (10 µM). 33 (NCI

COc1ccc(/C=C\c2cc(OC)c(OC)c(OC)c2)cc1O [CA-4, combretastatin A-4, reference compound]
MG-MID TGI: 10300 nM
GI50 (Homo sapiens, 60 cell, read-out: MG-MID GI50): 99 nM
